In PubChem BioAssay AID1963848 (Molecular Pharmacology Branch, DTP, NCI, 2024):

Test system: 379773-124-R-J2-PDC spheroid viability
Test: Anticancer human tumor 379773-124-R-J2-PDC patient-derived endometrial carcinoma cell line growth inhibition [POLQ]
Conditions: spheroids with HUVEC and MSC; for IC50: curve of first compound; for viability, T/C: stronger effect = lower value
Summary of the method: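 PDC + HUVEC + MSC complex spheroids; POLQ inhibitors ± partner drugs; top conc. at/near clinical Cmax, else 10 microM (SN-38 1 microM), half-log dilutions; 37 degrees C, 5% CO2.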

[1] = second compound 0.0316 µM, first compound 0.0316 µM
[2] = second compound 0.0316 µM, first compound 0.1 µM
[3] = second compound 0.0316 µM, first compound 0.316 µM
[4] = second compound 0.0316 µM, first compound 1 µM
[5] = second compound 0.0316 µM, first compound 3.16 µM
[6] = second compound 0.0316 µM, first compound 10 µM
[7] = second compound 0.1 µM, first compound 0.0316 µM
[8] = second compound 0.1 µM, first compound 0.1 µM
[9] = second compound 0.1 µM, first compound 0.316 µM
[10] = second compound 0.1 µM, first compound 1 µM
[11] = second compound 0.1 µM, first compound 3.16 µM
[12] = second compound 0.1 µM, first compound 10 µM
[13] = second compound 0.316 µM, first compound 0.0316 µM
[14] = second compound 0.316 µM, first compound 0.1 µM
[15] = second compound 0.316 µM, first compound 0.316 µM
[16] = second compound 0.316 µM, first compound 1 µM
[17] = second compound 0.316 µM, first compound 3.16 µM
[18] = second compound 0.316 µM, first compound 10 µM
[19] = second compound 1 µM, first compound 0.0316 µM
[20] = second compound 1 µM, first compound 0.1 µM
[21] = second compound 1 µM, first compound 0.316 µM
[22] = second compound 1 µM, first compound 1 µM
[23] = second compound 1 µM, first compound 3.16 µM
[24] = second compound 1 µM, first compound 10 µM
[25] = second compound 3.16 µM, first compound 0.0316 µM
[26] = second compound 3.16 µM, first compound 0.1 µM
[27] = second compound 3.16 µM, first compound 0.316 µM
[28] = second compound 3.16 µM, first compound 1 µM
[29] = second compound 3.16 µM, first compound 3.16 µM
[30] = second compound 3.16 µM, first compound 10 µM
[31] = second compound 10 µM, first compound 0.0316 µM
[32] = second compound 10 µM, first compound 0.1 µM
[33] = second compound 10 µM, first compound 0.316 µM
[34] = second compound 10 µM, first compound 1 µM
[35] = second compound 10 µM, first compound 3.16 µM
[36] = second compound 10 µM, first compound 10 µM
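Further: spheroids exposed to drugs for seven days before readout.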
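Wherever viability, T/C is given: percent viability relative to DMSO vehicle control taken as 100%.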

COc1cc2cc(C(=O)CCC(=O)O)sc2cc1OC + COC1C(OC(N)=O)C(O)C(Oc2ccc3c(O)c(NC(=O)c4ccc(O)c(CC=C(C)C)c4)c(=O)oc3c2C)OC1(C)C
IC50 (second compound 0.0316 µM): > 10 µM | IC50 (second compound 0.1 µM): > 10 µM | IC50 (second compound 0.316 µM): > 10 µM | IC50 (second compound 1 µM): > 10 µM | IC50 (second compound 3.16 µM): > 10 µM | IC50 (second compound 10 µM): > 10 µM | viability, T/C [1]: 85.9% | viability, T/C [2]: 75.8% | viability, T/C [3]: 92.1% | viability, T/C [4]: 82.5% | viability, T/C [5]: 78% | viability, T/C [6]: 91.4% | viability, T/C [7]: 88.2% | viability, T/C [8]: 82% | viability, T/C [9]: 90.2% | viability, T/C [10]: 83.3% | viability, T/C [11]: 85.5% | viability, T/C [12]: 96.6% | viability, T/C [13]: 96% | viability, T/C [14]: 83.6% | viability, T/C [15]: 76.5% | viability, T/C [16]: 82.1% | viability, T/C [17]: 81% | viability, T/C [18]: 84.6% | viability, T/C [19]: 82.7% | viability, T/C [20]: 84.1% | viability, T/C [21]: 90.9% | viability, T/C [22]: 89% | viability, T/C [23]: 90% | viability, T/C [24]: 78.2% | viability, T/C [25]: 99.9% | viability, T/C [26]: 82.5% | viability, T/C [27]: 78.1% | viability, T/C [28]: 78.7% | viability, T/C [29]: 90.2% | viability, T/C [30]: 85.3% | viability, T/C [31]: 92.8% | viability, T/C [32]: 86.1% | viability, T/C [33]: 86% | viability, T/C [34]: 69.2% | viability, T/C [35]: 86.1% | viability, T/C [36]: 95.4%

CCCS(=O)(=O)Nc1ccc(F)c(C(=O)c2c[nH]c3ncc(-c4ccc(Cl)cc4)cc23)c1F + COC1C(OC(N)=O)C(O)C(Oc2ccc3c(O)c(NC(=O)c4ccc(O)c(CC=C(C)C)c4)c(=O)oc3c2C)OC1(C)C
IC50 (second compound 0.0316 µM): > 10 µM | IC50 (second compound 0.1 µM): > 10 µM | IC50 (second compound 0.316 µM): > 10 µM | IC50 (second compound 1 µM): > 10 µM | IC50 (second compound 3.16 µM): > 10 µM | IC50 (second compound 10 µM): > 10 µM | viability, T/C [1]: 94.2% | viability, T/C [2]: 86.8% | viability, T/C [3]: 83.8% | viability, T/C [4]: 87.9% | viability, T/C [5]: 70.5% | viability, T/C [6]: 57.9% | viability, T/C [7]: 86.2% | viability, T/C [8]: 87.7% | viability, T/C [9]: 88.3% | viability, T/C [10]: 80.3% | viability, T/C [11]: 73.1% | viability, T/C [12]: 55.4% | viability, T/C [13]: 77.1% | viability, T/C [14]: 75.6% | viability, T/C [15]: 76.8% | viability, T/C [16]: 77.6% | viability, T/C [17]: 66.2% | viability, T/C [18]: 52.9% | viability, T/C [19]: 87.6% | viability, T/C [20]: 84.4% | viability, T/C [21]: 81.8% | viability, T/C [22]: 77.8% | viability, T/C [23]: 73.6% | viability, T/C [24]: 58.9% | viability, T/C [25]: 73.5% | viability, T/C [26]: 76.2% | viability, T/C [27]: 75.8% | viability, T/C [28]: 76.4% | viability, T/C [29]: 75.7% | viability, T/C [30]: 61.3% | viability, T/C [31]: 78.5% | viability, T/C [32]: 85.4% | viability, T/C [33]: 79.8% | viability, T/C [34]: 66.5% | viability, T/C [35]: 75.9% | viability, T/C [36]: 60.2%

CCCS(=O)(=O)Nc1ccc(F)c(C(=O)c2c[nH]c3ncc(-c4ccc(Cl)cc4)cc23)c1F + Nc1ccc(C#CCN(C(=O)Cc2ncc(C(F)(F)F)cc2C(F)(F)F)c2ccc(F)cc2)nn1
IC50 (second compound 0.0316 µM): > 10 µM | IC50 (second compound 0.1 µM): > 10 µM | IC50 (second compound 0.316 µM): > 10 µM | IC50 (second compound 1 µM): > 10 µM | IC50 (second compound 3.16 µM): > 10 µM | IC50 (second compound 10 µM): > 10 µM | viability, T/C [1]: 85.6% | viability, T/C [2]: 97.3% | viability, T/C [3]: 83.9% | viability, T/C [4]: 92% | viability, T/C [5]: 80.9% | viability, T/C [6]: 55.1% | viability, T/C [7]: 95.3% | viability, T/C [8]: 88.7% | viability, T/C [9]: 87.2% | viability, T/C [10]: 85.7% | viability, T/C [11]: 81.4% | viability, T/C [12]: 55% | viability, T/C [13]: 94.6% | viability, T/C [14]: 95.8% | viability, T/C [15]: 81% | viability, T/C [16]: 94.6% | viability, T/C [17]: 93.6% | viability, T/C [18]: 70.8% | viability, T/C [19]: 90.6% | viability, T/C [20]: 86.6% | viability, T/C [21]: 95.1% | viability, T/C [22]: 85.7% | viability, T/C [23]: 77.9% | viability, T/C [24]: 59.2% | viability, T/C [25]: 96.5% | viability, T/C [26]: 89.7% | viability, T/C [27]: 92.1% | viability, T/C [28]: 96.4% | viability, T/C [29]: 75.1% | viability, T/C [30]: 59.8% | viability, T/C [31]: 100% | viability, T/C [32]: 87.3% | viability, T/C [33]: 79.8% | viability, T/C [34]: 83.6% | viability, T/C [35]: 81.5% | viability, T/C [36]: 54.3%

C=CCn1c(=O)c2cnc(Nc3ccc(N4CCN(C)CC4)cc3)nc2n1-c1cccc(C(C)(C)O)n1 + COC1C(OC(N)=O)C(O)C(Oc2ccc3c(O)c(NC(=O)c4ccc(O)c(CC=C(C)C)c4)c(=O)oc3c2C)OC1(C)C
IC50 (second compound 0.0316 µM): 0.453 µM | IC50 (second compound 0.1 µM): 0.425 µM | IC50 (second compound 0.316 µM): 0.354 µM | IC50 (second compound 1 µM): 0.487 µM | IC50 (second compound 3.16 µM): 0.472 µM | IC50 (second compound 10 µM): 0.436 µM | viability, T/C (second compound 0.0316 µM, first compound 0.00316 µM): 84.1% | viability, T/C (second compound 0.0316 µM, first compound 0.01 µM): 74.3% | viability, T/C [1]: 89.5% | viability, T/C [2]: 79.7% | viability, T/C [3]: 71.9% | viability, T/C [4]: 1.84% | viability, T/C (second compound 0.1 µM, first compound 0.00316 µM): 82.8% | viability, T/C (second compound 0.1 µM, first compound 0.01 µM): 73.7% | viability, T/C [7]: 85.3% | viability, T/C [8]: 81.7% | viability, T/C [9]: 66.2% | viability, T/C [10]: 3.04% | viability, T/C (second compound 0.316 µM, first compound 0.00316 µM): 87.9% | viability, T/C (second compound 0.316 µM, first compound 0.01 µM): 74.8% | viability, T/C [13]: 88.3% | viability, T/C [14]: 88% | viability, T/C [15]: 55.3% | viability, T/C [16]: 2.39% | viability, T/C (second compound 1 µM, first compound 0.00316 µM): 80.6% | viability, T/C (second compound 1 µM, first compound 0.01 µM): 89.8% | viability, T/C [19]: 78.3% | viability, T/C [20]: 88.8% | viability, T/C [21]: 78.2% | viability, T/C [22]: 2.58% | viability, T/C (second compound 3.16 µM, first compound 0.00316 µM): 85.6% | viability, T/C (second compound 3.16 µM, first compound 0.01 µM): 86.9% | viability, T/C [25]: 79.6% | viability, T/C [26]: 77.5% | viability, T/C [27]: 74.8% | viability, T/C [28]: 3.31% | viability, T/C (second compound 10 µM, first compound 0.00316 µM): 77.5% | viability, T/C (second compound 10 µM, first compound 0.01 µM): 66.6% | viability, T/C [31]: 103% | viability, T/C [32]: 81% | viability, T/C [33]: 68.6% | viability, T/C [34]: 2.21%
